Source: publication PMC3923778 (PLoS Currents, 2014)

Columns and labels:
R6/2 mice = test: Cued Two-Choice Swim Test; format: in vivo, mouse; settings: for Cued 2-CST Reversal, Correct Choice: p vs Vehicle-treated R6/2 mice / Cued 2-CST Acquisition, % of Mice Reaching Criterion: p vs Vehicle-treated R6/2 mice: BID; for Cued 2-CST Reversal, Correct Choice: p vs Vehicle-treated R6/2 mice: ANOVA; for Cued 2-CST Acquisition, % of Mice Reaching Criterion: p vs Vehicle-treated R6/2 mice: at 9 Weeks, Fisher's exact test
Protocol: The cued two-choice swim test was performed at 9 weeks of age. Testing was conducted under low light, white light conditions. The mice were taught to swim to (acquisition), or away from (reversal), a light positioned over the escape platform. Animals were placed within a rectangular tank (76 cm x 30 cm x 30 cm) filled with water maintained at 25°C ± 1°C. The water was rendered opaque by the addition of non-toxic white paint. The escape platform was located 0.5 cm below the surface of the water at one end of the tank. A light source with a 25W bulb (white light), oriented toward the water, was clipped to one side of the tank above the escape platform (7 cm in diameter with the borders slanted and roughened to help the rodents climb to it). Under these conditions, the light intensity is measured as 200 lux on the illuminated side of the tank, and 3 lux on the dark side of the tank. The platform was located on the lit side of the arena across acquisition trials, although the location of the lit side within the room relative to the mouse’s entry point was varied. The location of the bulb and platform was different on different trials for the same mouse. On each trial, mice were placed into the middle of the tank and allowed to swim for up to 60 sec, or until they found the platform. […] During all acquisition days, mice were given 8 trials per day (4 blocks of 2 trials, separated by an interblock interval of 20-30 minutes). Training continued in this way until each mouse performed at 75% correct choices for 2 consecutive days; upon reaching this criterion for successful acquisition of the task, mice were placed into the reversal phase on an individual basis. During reversal training, (4 blocks of 2 trials per day), the platform was placed on the dark side of the tank. On each trial during testing days, the latency to reach the platform was recorded (60 seconds if the platform was not reached) and the trial was scored as either “correct”, “incorrect” or “no choice”. The maximum number of days of acquisition was 12 days. All mice went from acquisition into the reversal phase and the experiment was stopped when 2 consecutive days of 75% criterion was reached or after a maximum of 7 days of reversal testing. A correct choice was scored if the animal turned in the direction of the platform and successfully mounted the platform. An incorrect choice was scored if the animal swam in the direction opposite the platform. […] To make a choice, a mouse had to swim within 20 cm of either end of the tank.
All values are presented as mean ± Standard Error of Mean (SEM), and differences are considered to be statistically significant at the p < 0.05 level. Statistical analysis was performed using StatsDirect statistical software. Differences between group means were analyzed by 1-way-ANOVA followed by Dunnett’s test (comparison to the control (=vehicle treated TG mice) group). The acquisition of the Cued two-choice swim test was analyzed using Fisher’s exact test.

[1] = Microdialysis PK: SCH-51866 in striatal extracellular dialysate; format: in vivo, mouse; settings: single oral dose, male R6/2, 7-8 weeks
Protocol: Microdialysis PK/PD studies were conducted at Brains Online, Inc. (San Francisco, CA, USA) Male R6/2 (CBA/C57Bl/6 strain, CAG 120) mice aged 7-8 weeks (20 - 30 g; The Jackson Laboratory, USA) were used for the experiments. The animals were group housed in plastic cages (3-4 animals / cage) and had access to food and water ad libitum. Experiments were conducted in accordance with the declarations of Helsinki and were approved by the Institutional Animal Care and Use Committee of the University of California, San-Francisco. […] Mice were anesthetized using isoflurane (2%, 800 mL/min O2). Bupivacain/epinephrine was used for local anesthesia. Carprophen was used peri-/post-operative as analgesia. The animals were placed in a stereotaxic frame (Kopf instruments, USA), and microdialysis probes were inserted into the striatum. […] After surgery animals were kept individually in cages and provided food and water ad libitum. Animals were fasted the night before the experiment. Experiments were performed one day after surgery. […] Treatment effects were evaluated among different drug concentrations and also compared to baseline, using two-way ANOVA for repeated measurements followed by Student-Newman-Keuls post-hoc test. […] Pharmacodynamic parameters were calculated using Phoenix™ WinNonlin® Pro Node initial (Pharsight Corporation, Mountain View, CA, USA).

## CN1C(=O)c2nc(Cc3ccc(C(F)(F)F)cc3)[nH]c2N2C1=N[C@H]1CCC[C@H]12 [SCH-51866, (+)-cis-5,6a,7,8,9,9a-hexahydro-2-[4-[trifluro-methyl]phenylmethyl]-5-methyl-cylopent[4,5]imidazo [2,1-b]purin-4(3H)one]
R6/2 mice; R6/2 mice, 9 weeks of age
  Cued Two-Choice Swim Test: learning phase, reversal learning, latency to make the choice, effect in words: did not improve any of these parameters
R6/2 mice; Test Day 1, 10 mg/kg p.o.
  Cued 2-CST Reversal, Correct Choice: p vs Vehicle-treated R6/2 mice: ANOVA: p=0.117
R6/2 mice; Test Day 1, 30 mg/kg p.o.
  Cued 2-CST Reversal, Correct Choice: p vs Vehicle-treated R6/2 mice: ANOVA: p=0.117
R6/2 mice; Test Day 2, 10 mg/kg p.o.
  Cued 2-CST Reversal, Correct Choice: p vs Vehicle-treated R6/2 mice: ANOVA: p=0.311
  Cued 2-CST Acquisition, % of Mice Reaching Criterion: p vs Vehicle-treated R6/2 mice: p>0.999
R6/2 mice; Test Day 2, 30 mg/kg p.o.
  Cued 2-CST Reversal, Correct Choice: p vs Vehicle-treated R6/2 mice: ANOVA: p=0.311
  Cued 2-CST Acquisition, % of Mice Reaching Criterion: p vs Vehicle-treated R6/2 mice: p=0.487
R6/2 mice; Test Day 3, 10 mg/kg p.o.
  Cued 2-CST Reversal, Correct Choice: p vs Vehicle-treated R6/2 mice: ANOVA: p=0.573
  Cued 2-CST Acquisition, % of Mice Reaching Criterion: p vs Vehicle-treated R6/2 mice: p>0.999
R6/2 mice; Test Day 3, 30 mg/kg p.o.
  Cued 2-CST Reversal, Correct Choice: p vs Vehicle-treated R6/2 mice: ANOVA: p=0.573
  Cued 2-CST Acquisition, % of Mice Reaching Criterion: p vs Vehicle-treated R6/2 mice: p>0.999
R6/2 mice; Test Day 4, 10 mg/kg p.o.
  Cued 2-CST Reversal, Correct Choice: p vs Vehicle-treated R6/2 mice: ANOVA: p=0.206
  Cued 2-CST Acquisition, % of Mice Reaching Criterion: p vs Vehicle-treated R6/2 mice: p>0.999
R6/2 mice; Test Day 4, 30 mg/kg p.o.
  Cued 2-CST Reversal, Correct Choice: p vs Vehicle-treated R6/2 mice: ANOVA: p=0.206
  Cued 2-CST Acquisition, % of Mice Reaching Criterion: p vs Vehicle-treated R6/2 mice: p>0.999
R6/2 mice; Test Day 5, 10 mg/kg p.o.
  Cued 2-CST Reversal, Correct Choice: p vs Vehicle-treated R6/2 mice: ANOVA: p=0.057
  Cued 2-CST Acquisition, % of Mice Reaching Criterion: p vs Vehicle-treated R6/2 mice: p>0.999
R6/2 mice; Test Day 5, 30 mg/kg p.o.
  Cued 2-CST Reversal, Correct Choice: p vs Vehicle-treated R6/2 mice: ANOVA: p=0.057
  Cued 2-CST Acquisition, % of Mice Reaching Criterion: p vs Vehicle-treated R6/2 mice: p>0.999
R6/2 mice; Test Day 6, 10 mg/kg p.o.
  Cued 2-CST Reversal, Correct Choice: p vs Vehicle-treated R6/2 mice: ANOVA: p=0.140
  Cued 2-CST Acquisition, % of Mice Reaching Criterion: p vs Vehicle-treated R6/2 mice: p=0.313
R6/2 mice; Test Day 6, 30 mg/kg p.o.
  Cued 2-CST Reversal, Correct Choice: p vs Vehicle-treated R6/2 mice: ANOVA: p=0.140
  Cued 2-CST Acquisition, % of Mice Reaching Criterion: p vs Vehicle-treated R6/2 mice: p>0.999
R6/2 mice; Test Day 7, 10 mg/kg p.o.
  Cued 2-CST Acquisition, % of Mice Reaching Criterion: p vs Vehicle-treated R6/2 mice: p=0.508
R6/2 mice; Test Day 7, 30 mg/kg p.o.
  Cued 2-CST Acquisition, % of Mice Reaching Criterion: p vs Vehicle-treated R6/2 mice: p=0.752
R6/2 mice; Test Day 8, 10 mg/kg p.o.
  Cued 2-CST Acquisition, % of Mice Reaching Criterion: p vs Vehicle-treated R6/2 mice: p=0.313
R6/2 mice; Test Day 8, 30 mg/kg p.o.
  Cued 2-CST Acquisition, % of Mice Reaching Criterion: p vs Vehicle-treated R6/2 mice: p=0.751
R6/2 mice; Test Day 9, 10 mg/kg p.o.
  Cued 2-CST Acquisition, % of Mice Reaching Criterion: p vs Vehicle-treated R6/2 mice: p>0.999
R6/2 mice; Test Day 9, 30 mg/kg p.o.
  Cued 2-CST Acquisition, % of Mice Reaching Criterion: p vs Vehicle-treated R6/2 mice: p>0.999
R6/2 mice; Test Day 10, 10 mg/kg p.o.
  Cued 2-CST Acquisition, % of Mice Reaching Criterion: p vs Vehicle-treated R6/2 mice: p>0.999
R6/2 mice; Test Day 10, 30 mg/kg p.o.
  Cued 2-CST Acquisition, % of Mice Reaching Criterion: p vs Vehicle-treated R6/2 mice: p>0.999
R6/2 mice; Test Day 11, 10 mg/kg p.o.
  Cued 2-CST Acquisition, % of Mice Reaching Criterion: p vs Vehicle-treated R6/2 mice: p>0.999
R6/2 mice; Test Day 11, 30 mg/kg p.o.
  Cued 2-CST Acquisition, % of Mice Reaching Criterion: p vs Vehicle-treated R6/2 mice: p=0.716
R6/2 mice; Test Day 12, 10 mg/kg p.o.
  Cued 2-CST Acquisition, % of Mice Reaching Criterion: p vs Vehicle-treated R6/2 mice: p>0.999
R6/2 mice; Test Day 12, 30 mg/kg p.o.
  Cued 2-CST Acquisition, % of Mice Reaching Criterion: p vs Vehicle-treated R6/2 mice: p>0.999
[1]
  SCH-51866 in brain extracellular fluid: dose-dependent accumulation
